Experiment: Stability in the presence of ferric EDTA (Fe-catalyzed hydrogen peroxide decomposition)
Assay type: physicochemical
Settings: with ferric EDTA; for hydrogen peroxide concentration: diluted with tap water
Method: Approximately 250 μL of a 3% solution of ferric EDTA (ethylenediaminetetracetic acid), at pH 7, was added to 3.5 grams of the composition obtained from EXAMPLE I.
The same amount of ferric EDTA was added to 3.5 grams of a 27.5% wt H2O2 solution. Both the 3.5 grams of the composition according to EXAMPLE I and the 3.5 grams H2O2 solution, both containing the ferric EDTA, were diluted with a quantity of tap water until the water contained 50 ppm of H2O2, determined with colorimetric reagent strips (Merck).
The following table indicates the evolution of the hydrogen peroxide concentration (ppm) in both samples.

For H2O2 [Diluted H2O2], the “gas bubbles indicating Fe-catalyzed hydrogen peroxide decomposition” value (diluted to 50 ppm H2O2) was “appeared almost instantly”, the hydrogen peroxide concentration (0 h) was 50 ppm and the hydrogen peroxide concentration (4 h) was 20 ppm. For the same substance, the hydrogen peroxide concentration (18 h) was 15 ppm.

Reference: patent US20150086647A1, “PEROXYGEN RELEASE COMPOSITIONS AND METHOD FOR PRODUCING THEM” (CREACHEM SA, priority 2012, published 2015)
